Experimental data taken from patent US20040259766A1, “Use of glutamate, glutamate derivatives or metabolites, glutamate analogues or mixtures thereof for the manufacture of a composition for the treatment of osteoporosis” (priority 2004, published 2004).
Where two headings read alike, the source gives them in different places. Marks after values point to notes of the source that are not given here. Residues, ends and D or L forms follow the SMILES beside them.

What was measured:
[1] = Gain of bodyweight of piglets during postnatal life; assay type: in vivo, pig
Method: (§1) All piglets suckled sow milk before weaning. After weaning at the age of 28 days piglets were fed ad libitum with a standard mixture Premix prestarter (PP) (Food plant-Motycz, Poland) and free access to water was allowed. Piglets were allotted to three experimental trials:
(§2) 2—Second group, receiving 0.4 g/kg/b.w. of L-alanyl-L-glutamine (ala-gin), (2 ml solution/kg b.w.)
(§3) At the age of 35 days, piglets were sacrificed, eviscerated and bones were sampled.

humerus and femur [2] = assay: Architectural and geometric properties of humerus and femur of piglets; assay type: in vivo, pig; conditions: piglets at 35 days of postnatal life; 0.4 g/kg b.w. oral once a day; mean ± SEM
Method: as §1, §2, §3
(§4) Architectural and geometric properties of bone were estimated based on measurements of horizontal and vertical cross section as well as interior and exterior diameter of the bone.
(§5) Mean relative wall thickness (MRWT) expresses the ratio of wall to lumen measures and serves as an indicator in the process of architectural adaptation of bone to physiological stress during the growth of the body. When the lumen increases with unchanged wall thickness the MRWT decreases but bone resistance to strain increases.

humerus and femur [3] = assay: Three point bending test (Instron 4302) of humerus and femur of piglets given Ala-Gln or AKG orally; assay type: in vivo, pig; conditions: piglets at 35 days of postnatal life; 0.4 g/kg b.w. oral once a day; mean ± SEM
Method: as §1, §2, §3
(§6) Using Instron 4302 apparatus and applying three point bending test as presented in FIG. 1, the following properties of the bones were determined from curves showing the relation between load and deflection: […]

femur = assay: Femur bone mineral density in intact, shame operated and ovariectomized rats given AKG in drinking water; assay type: in vivo, Wistar rat; conditions: in all three groups (INT, SHO, OVX); 60 days of drinking water with AKG; p<0.01 in all groups
Description: 60 female Wistar rats at the age of 2 months and with an initial bodyweight of 200 g are used.
The rats are divided into three groups (n=20), where Group 1 is shame operated, Group 2 is ovariectomized and Group 3 is intact, i.e. not operated at all.
20 of the rats are shame-operated (SHO), where the ovaries are exteriorised and replaced intact.
The second group of ovariectomized rats (OVX) are submitted to ovariectomy from a dorsal approach.
Six months after ovariectomy, the animals from group 1 and 2, are divided into two additional sub-groups; one placebo and one experimental group.
After 60 days with placebo and experimental drinking water the rats are anaesthetised in CO2 and femur isolated for further analysis of bone mineral density.

ribs [4] = assay: Three point bending test (Instron 4302) of ribs of piglets given Ala-Gln or AKG orally; assay type: in vivo, pig
Method: as §1, §2, §3, §6

right femur = assay: Bone mineral density (DEXA) of the right femur of piglets; assay type: in vivo, pig; conditions: right femur proximal and distal metaphysis, 21 and 35 days (FIG. 17, 18)
Method: (§7) Bone mineral density (BMD) was analysed by DEXA (Dual Energy X-ray Absorptiometry) using LUNAR apparatus.

ribs [5] = assay: Architectural and geometric properties of ribs of piglets; assay type: in vivo, pig; conditions: piglets at 35 days of postnatal life; 0.4 g/kg b.w. oral once a day; mean ± SEM
Method: as §1, §2, §3, §4, §5

ulna bone = conditions: group A, 0.8 g/kg body weight oral
Method: During general anesthetic surgery, the ulnar is broken and optionally denervated. On the first day after operation saline, AKG or Ala-Gln is administered orally at a dose of 0.8 g/kg body weight in 2 ml.
After the experimental period, the turkeys will be weighed and sacrified in order to measure bone mineral density (BMD).
as §7

[6] = piglets at 35 days of postnatal life, 0.4 g/kg b.w. oral once a day, mean ± SEM

Q: For `O=C(O)CCC(=O)C(=O)O` [AKG, alpha-ketoglutaric acid], which “Bodyweight of the piglets versus control group and Ala-Gln group” value ([1]; p>0.01 in comparison to Ala-Gln as printed) is on record?
A: more dramatic

Q: And the “Cross-sectional area (A) femur” value (humerus and femur [2])?
A: 64.7 ± 3.82* mm^2

Q: What about the “Cross-sectional area (A) humerus” value (humerus and femur [2]) of the same compound?
A: 52.7 ± 4.1* mm^2

Q: What about the “Second moment of inertia (Ix) femur” value (humerus and femur [2]) of the same compound?
A: 696.5 ± 48.7* mm^4

Q: And the “Second moment of inertia (Ix) humerus” value (humerus and femur [2])?
A: 459.4 ± 59.42* mm^4

Q: What about the “Bone maximum elastic strength (Wy) femur” value (humerus and femur [3]) of the same compound?
A: 1042.9 ± 73.66 N

Q: And the “Bone maximum elastic strength (Wy) humerus” value (humerus and femur [3])?
A: 726.0 ± 37.73 N

Q: And the “Bone ultimate strength (Wf) femur” value (humerus and femur [3])?
A: 1123.0 ± 75.09 N

Q: What about the “Bone ultimate strength (Wf) humerus” value (humerus and femur [3]) of the same compound?
A: 857.6 ± 45.42 N

Q: And the “BMD, difference between AKG treated rats and placebo treated rats” value (femur)?
A: about 10%

Q: And the “Yielding stress of the 5th rib” value (ribs [4]; 35-days-old piglets, versus control, FIG. 11)?
A: significant increase

Q: And the “Bone maximum elastic strength (Wy) (ribs 4-9)” value (ribs [4]; [6])?
A: 522.5 ± 17.97 N

Q: What about the “Moment of ultimate strength ribs (4-9)” value (ribs [4]; [6]) of the same compound?
A: 737.445 ± 23.85 N

Q: What about the “Ultimate strength (Wf) (ribs 4-9)” value (ribs [4]; [6]) of the same compound?
A: 585.1 ± 18.5 N

Q: And the “Bone mineralization versus piglets receiving placebo” value (right femur)?
A: higher

Q: What about the “Cross sectional area (A) (ribs 4-9)” value (ribs [5]) of the same compound?
A: 10.52 ± 0.35* mm^2

Q: What about the “MRWT (ribs 4-9)” value (ribs [5]) of the same compound?
A: 0.60 ± 0.026

Q: And the “Second moment of inertia (ribs 4-9)” value (ribs [5])?
A: 15.42 ± 0.93* mm^4

Q: What about the “BMD of the ulna bone, difference compared to saline treated turkeys” value (ulna bone; left wing control (intact), p<0.01) of the same compound?
A: 25%

Q: And the “BMD of the ulna bone, difference compared to saline treated turkeys” value (ulna bone; right wing experimental (neurectomized, fracture of the ulnae), p<0.055)?
A: about 11%

Q: What does the source list for `C[C@H](N)C(=O)N[C@@H](CCC(N)=O)C(=O)O` [Ala-Gln, L-alanyl-L-glutamine, reference compound] (H-Ala-Gln-OH)?
A: Bodyweight difference (control group less than Ala-Gln treated group) ([1]; day 14, 0.4 g/kg b.w. oral): about 690 g; Bodyweight difference (control group less than Ala-Gln treated group) ([1]; day three, 0.4 g/kg b.w. oral): about 96 g; Mean relative wall thickness (MRWT) femur (humerus and femur [2]): 0.88 ± 0.12; Mean relative wall thickness (MRWT) humerus (humerus and femur [2]): 0.64 ± 0.07; Second moment of inertia (Ix) humerus (humerus and femur [2]): 368.4 ± 24.31* mm^4; Bone maximum elastic strength (Wy) femur (humerus and femur [3]): 1016.8 ± 46.68 N; Bone maximum elastic strength (Wy) humerus (humerus and femur [3]): 638.7 ± 9.91 N; Bone ultimate strength (Wf) humerus (humerus and femur [3]): 743.0 ± 15.71∇ N; MRWT (ribs 4-9) (ribs [5]): 0.70 ± 0.038
